For data set [1], the system named is invasive species including cheatgrass, dandelions, and perennial noxious weeds. The data set can be described thus: Plant community survey in area contaminated with copper from a copper smelter (Example 22). The data set is classed as in vivo. Particulars: soil copper contamination levels measured at various sites.
Text: (§5) The prevalence of various invasive species including cheatgrass, dandelions, and perennial noxious weeds (forbs) was observed and correlated with soil copper contamination levels measured at various sites.
The next data set deals with dandelions. In words: Plant community response at Anaconda Smelter Superfund site. The data set is classed as in vivo. As to conditions: where moderate to high levels of water soluble copper and zinc are measured in the soil.
Another data set has as its system spotted knapweed. The data set is described as above. As to conditions: gradient of water soluble copper and zinc in soil. The format is in vivo.
The next data set relates to native perennial grasses. Particulars: in vivo.
Another data set relates to French marigold. As to conditions: in vivo; cited from earlier work.
Data set [2] concerns chlorophyllitic plants. The data set can be described thus: Photosynthetic disruption by glyphosate. The format is in vivo. The method, then: Extensive research has documented that plants are often sensitive to relatively minute concentrations or exposures to unique synthetic compounds or combinations of naturally occurring elements, including micro-nutrients. For example, glyphosate (aka ROUNDUP®, a synthetic Monsanto product) is effective at causing photosynthetic disruption in chlorophyllitic plants at an application rate of as little as 0.75 pounds active ingredient per acre, which equates to only approximately 8 mg/square foot of application, equivalent to approximately 14 ppm application rate. The American Phytopathological Society (APS) reported that micronutrients are generally toxic when present in high amounts, although ‘high concentrations’ are not clearly defined, and little toxicity have been reported at exceptionally low micro-nutrient concentrations. This occurrence is known as micro-nutrient toxicity syndrome (MTS). […] In addition, plants can vary considerably from species to species in their susceptibility to nutrient toxicities. For example, Lee and others (1996) reported inducing seed geranium (Pelargonium x hortorum) micronutrient toxicity symptoms by applying nutrient solutions containing 0.5 mg/L B, Cu, or Zn, or as little as 0.25 mg/L Mo, in combination with nitrogen, phosphorus, and potassium. […]

Data set [3] deals with chlorophyllitic plants. As to conditions: as little as; cited from earlier work.
A further data set relates to invasive plant species. In words: Hypothetical dose-response testing of invasive species on a rangeland site (Example 21). As to conditions: for biomass reduction: zinc-sensitive invasive species. The data set is classed as in vivo. As to the method: In this example, a rangeland site has become colonized by three invasive species. From dose-response testing it can be determined that 2 of the invasive species can be controlled by boron fertilization while the third is tolerant of boron, but not zinc. Of the two boron-sensitive invasive plant species, one is intolerant to a soil solution level of 3 mg boron per liter, while the other is sensitive to 7 milligrams per liter.

In data set [4] the test system is seed geranium (Pelargonium x hortorum). Particulars: in combination with nitrogen, phosphorus, and potassium; cited from earlier work.
The next data set concerns humans. As to conditions: U.S. EPA, 2005 carcinogen assessment guidelines; cited from earlier work.
Data set [5] concerns cheatgrass (Bromus tectorum). In words: Field trial of boron fertilization in existing perennial grass communities near Belgrade, Mont. The format is in vivo. The method, then:
(§1) Field trials were established in existing perennial grass communities near Belgrade, Mont., with high levels of cheatgrass and dandelion invasion into existing perennial grasses to examine use of boron (elemental symbol: B) fertilization for weed control. Minute amounts of boron, in doses as low as 5 mg B/L (soluble) or 2-3 lbs B (dry) active ingredient per acre, were applied to the plots.
(§2) Over the same period of time dandelion cover decreased from a mean of 59% to 15%, and cheatgrass cover decreased from a mean of 47% to 1%, while perennial grass cover increased from 42% to 71%.
(§3) Formulation D, Using the boron-containing compound Na2B4O7.10 H20, the 0.5 mg/L soil concentration applied in the field experiment described in Example 1 was attained by adding 2.55 grams per 100 square foot. The 50 mg/L soil concentration was attained by adding 255 grams per 100 square feet. These concentrations were applied either dry or by dissolving the boron-containing compound in water and then applied as a liquid to field plots.

The test system of data set [6] is dandelion (Taraxacum officinale). The description is as above. Particulars: over 5 year period after a single application of boron fertilizer; decreased from a mean of 59%. The format is in vivo. The method, then:
as §1, §2, §3

Data set [7] deals with perennial grass (several species). The data set is described as above. As to conditions: over 5 year period after a single application of boron fertilizer; increased from 42%. The data set is classed as in vivo. As to the method: as §1, §2, §3
Data set [8] relates to cheatgrass seed. In words: Greenhouse petri dish cheatgrass seed germination experiment. The data set is classed as in vivo, Bromus tectorum. The method, then:
Greenhouse petri dish experiments were completed to evaluate the effect of minute concentrations of boron on cheatgrass seed germination. Treatment concentrations (in addition to a zero treatment control) ranged from 10 to 50 mg B/L dissolved in distilled water. […] A follow-up experiment, essentially repeating the previously described petri dish experiment, with inclusion of a treatment rate as low as 5 mg/L, was completed. It was observed that cheatgrass seeds germinated at the 5 mg/L concentration, with death of the seedlings occurring within 7 days of germination (data not shown).

The test system of data set [9] is Kentucky bluegrass (Poa pratensis). The data set can be described thus: Greenhouse pot study watered with boron solutions. The data set is classed as in vivo. As to conditions: increasing boron concentrations. The text has this: (§4) Greenhouse pot irrigation study, Bozeman, Mont. (FIG. 6).
Data set [10] relates to cheatgrass (Bromus tectorum). In words: Greenhouse pot study watered with boron solutions. The format is in vivo. Particulars: increasing boron concentrations.
Text: as §4

The subject of data set [11] is dandelion (Taraxacum officinale). In words: Greenhouse pot study watered with boron solutions. The data set is classed as in vivo.
Text: as §4

For data set [12], the system named is spotted knapweed (Centaurea maculosa). The data set can be described thus: Greenhouse pot study watered with boron solutions. The format is in vivo.
Text: as §4

Another data set concerns perennial grass. The data set can be described thus: Rangeland site five-year study, surface liquid boron applications (Example 4). The format is in vivo. Particulars: treated area.
Data set [13] has as its system cheatgrass (Bromus tectorum). In words: Cheatgrass-affected rangeland site two-year study, surface liquid boron applications (Example 5). The format is in vivo. As to conditions: treated rangeland site. The source says:
At a cheatgrass-affected rangeland site plant cover over a two-year study period is shown in response to water soluble soil boron concentrations resulting from surface liquid boron applications. Perennial grass cover in the treated rangeland site was increased to between 60 and 70 percent cover while cheatgrass cover decreased and was less than 3% (FIG. 5A) while adjacent untreated rangeland had less perennial grass cover and more cheatgrass after 2 years. (Soil sampling of the 0-6 inch depth was performed annually over a five year period to determine the water soluble boron concentrations both in the treated and untreated areas (FIG. 5B). Transects were used to measure plant cover annually at sites co-located with soil sampling.

Data set [14] relates to cheatgrass seed. The data set can be described thus: Benchtop seed germination in covered petri dishes with boron solutions (Example 8). As to conditions: boron 5 to 50 mg/L; 20 seeds; ten days after treatment. The data set is classed as in vivo, Bromus tectorum. The method, then: Germination percentage of cheatgrass, dandelion, spotted knapweed and Kentucky bluegrass seed was measured ten (10) days after treatment with solutions of increasing boron concentration (FIG. 8). Cheatgrass appeared most sensitive to boron solution resulting in essentially 100% death of 20 cheatgrass seeds in covered petri dishes, when treated with solutions with boron concentration ranging from 5 to 50 mg/L. Control treatment using tap water successful germination percentage exceeded 56%.

Data set [15] deals with cheatgrass, dandelion, spotted knapweed and Kentucky bluegrass seed. Described as above. The data set is classed as in vivo. Particulars: boron concentrations reached 25 mg/L; ten days after treatment. The method, then:
Germination percentage of cheatgrass, dandelion, spotted knapweed and Kentucky bluegrass seed was measured ten (10) days after treatment with solutions of increasing boron concentration (FIG. 8).

Data set [16] has as its system bluebunch wheatgrass (Pseudoroegenaria spicata). As to conditions: in vivo.
Description: (§6) In a greenhouse pot study Kentucky bluegrass, bluebunch wheatgrass, cheatgrass, dandelion and spotted knapweed were grown from seed in potting soil for a period of approximately 26 weeks. Plants were watered with tap water for the first 24 weeks and then 3 times with boron solutions during the final 2 weeks of the study. Boron concentrations used were 5, 10, 25 and 50 mg B/L in addition to a tap water treatment and a commercial plant fertilizer solution.
For data set [17] the test system is unchanged. In words: Greenhouse pot study watered with boron solutions. Particulars: watered 3 times in final 2 weeks.
Description: as §6
The mark [18] stands for this setting: increasing boron concentrations.
The mark [19] stands for this setting: lowest boron solution concentration used, 5 mg B/L, watered 3 times in final 2 weeks.

Text for native perennial grasses: as §5

Turning to `[Cu]` [copper], the “occurrence of invasive species versus soil copper” value in [1] is “primarily observed at lower copper contamination sites”. Further, in the data set on dandelions, the occurrence of dandelions entry is reported as “not found”. For the same compound, the “occurrence of spotted knapweed” value in the data set on spotted knapweed was “found growing in soils with low to high levels”. Besides, the “tolerance of native perennial grasses to soil copper” value with native perennial grasses was “tolerate higher copper soil levels”. For the same compound, the “concentration inducing micro-nutrient toxicity” value with French marigold was 4000 ng/mL.

As for `O=C(O)CNCP(=O)(O)O` [glyphosate], in the data set on chlorophyllitic plants [2] (equates to 0.75 pounds active ingredient per acre), the “effective application rate, equivalent per area” value is recorded as “approximately 8 mg/square foot”. For the same compound, in the data set on chlorophyllitic plants [2] (equivalent to 0.75 pounds active ingredient per acre), the “effective application rate, equivalent” value is “approximately 14 ppm”. Also, the “application rate effective at causing photosynthetic disruption” value in the data set with chlorophyllitic plants [3] is 0.75 pounds active ingredient per acre.

In the case of `[Mn+2]` [manganese], the “concentration inducing micro-nutrient toxicity” value in the data set with French marigold is 1000 ng/mL.

Regarding `[Mo]` [molybdenum], in the data set with French marigold, the “concentration inducing micro-nutrient toxicity” value is 5000 ng/mL.

Consider `[Zn]` [zinc], for which the biomass reduction with invasive plant species (0.4 mg zinc per liter) is reported as 38%; with invasive plant species (0.9 milligrams per liter) it was 89%. In addition, the occurrence of dandelions result in the data set on dandelions is “not found”. In the data set with spotted knapweed, the “occurrence of spotted knapweed” value is listed as “found growing in soils with low to high levels”. Moreover, the “nutrient solution concentration inducing micronutrient toxicity symptoms” value in data set [4] is reported as 0.5 mg/L.

As for borate salts, the carcinogenicity classification result in the data set with humans is reported as “not likely to be carcinogenic to humans”.

In the case of boron, the “emerging or mature cheatgrass plants in plots” value in data set [5] (following growing seasons, doses as low as 5 mg B/L or 2-3 lbs B per acre) is recorded as “near-total absence”. In data set [5] (over 5 year period after a single application of boron fertilizer, decreased from a mean of 47%), this compound showed a mean cheatgrass cover of 1%. The mean dandelion cover in [6] was 15%. The perennial grass cover in data set [7] was determined as 71%. The “cheatgrass seed germination (observation)” value in the data set with cheatgrass seed [8] (5 mg/L, follow-up experiment) is “germinated”. In addition, the “death of seedlings, time after germination” value in the data set with cheatgrass seed [8] (5 mg/L, follow-up experiment) is recorded as no more than 7 days. The cheatgrass seed germination result with cheatgrass seed [8] (10 to 50 mg B/L in distilled water, after 14 days) was “zero”; in the data set on cheatgrass seed [8] (boron solution 10 mg/L, 14 days post treatment (FIG. 2B)) it was 0%. For the same compound, the “plant health index (color and vigor) response” value is recorded as “declined in vigor” in [9]; “declined in vigor” in [10]; “declined in vigor” in data set [11] (setting [18]); “declined in vigor” in data set [12] (setting [18]); “little change in plant health” in [16]. Moreover, the phytotoxic response entry in [11] (setting [19]) and in [12] (setting [19]) was “marked phytotoxicity” throughout. In addition, the “rate of decline in plant health compared with other species” value in data set [12] (increasing solution boron concentration) is “most rapid decline in plant health”. Moreover, the perennial grass densities result in the data set on perennial grass was “increase over time”. Also, in [13], the cheatgrass cover result was “less than 3%”. For the same compound, in the data set on cheatgrass seed [14], the “death of cheatgrass seeds” value is roughly 100%. In [15], the “germination of any species” value is listed as “Very little germination”. The “soil solution level to which invasive species is intolerant” value in the data set with invasive plant species (first boron-sensitive invasive species) is recorded as 3 mg boron per liter. For the same compound, the “soil solution level to which invasive species is sensitive” value in the data set with invasive plant species (second boron-sensitive invasive species) was determined as 7 milligrams per liter. In the data set on French marigold, the “concentration inducing micro-nutrient toxicity” value is 500 ng/mL. Further, in [17], the tolerated boron concentration was no less than 50 mg B/L.
